Experimental findings from patent publication US20240294467A1, “USP9X Inhibitors” (ProDeg, LLC, priority 2021, published 2024) are described below.

Type in all cases: cell-based
In test [1] the test system is SK-BR3 breast cancer cells. As to the kind of experiment: WST-1 cell viability assay. Particulars: Homo sapiens, SK-BR-3, 72-hour treatment, read-out: IC50, inhibiting proliferation. The method, then:
Compound Compound 9A was tested for the ability to inhibit the proliferation of Mia-Paca-2 pancreatic cancer cells. Mia-Paca-2 and MDA-MB-231 cells were seeded into the wells of a 96 well tissue culture plate in complete medium (10% fetal calf serum) and incubated overnight at 37° C./5% CO2). The medium was exchanged for fresh medium containing varying concentrations of Compound 9A and the plate was incubated for 72 hours at 37° C./5% CO2. The viability of cells at the end of this incubation was assessed with the WST-1 reagent. To 10 ml of warm (37° C.) complete medium, 1 ml WST-1 reagent was added. The medium from the wells of the plate with the Mia-Paca-2 cells was removed and replaced with 100 μL of the WST-1 reagent in complete medium. The plate was incubated at 37 37° C./5% CO2. At timed intervals the absorbance at 450 nm was determined for each well in a UVNis plate reader. For each well the slope of the plot of the absorbance 450 nm vs time was determined. The readings were normalized to that of the wells for the untreated control and a dose-response curve was plotted. A fit to the data was made from a four parameter, variable slope program (GraphPad Prism) and the IC50 was determined.
Another substrate of USP9X is the receptor tyrosine kinase erbB2. […] The breast cancer cell line SK-BR3 expresses high levels of erbB2. […]

A further test relates to RKO. As to the kind of experiment: ONCOLINES Profiler proliferation. Particulars: for IC50: colon carcinoma. From the text: (§1) The compounds were profiled on an ONCOLINES™ Profiler (Netherlands Translational Research Center) assayed with 66 cancer cell lines to determine if they were capable of inhibiting the proliferation of these cancer cells.
(§2) To further evaluate potency of the compounds, they were compared with the USP9X inhibitor WP 1130 by screening both the compounds and WP1130 on a 66-cancer cell line panel ONCOLINES™ Profiler.

The subject of another test is MOLT-4. As to the kind of experiment: ONCOLINES Profiler proliferation.
Text: as §1, §2

The test system of a further test is A549. As to the kind of experiment: ONCOLINES Profiler proliferation.
Text: as §1, §2

The next test concerns A-172. As to the kind of experiment: ONCOLINES Profiler proliferation.
Text: as §1, §2

For another test, the system named is LoVo. As to the kind of experiment: ONCOLINES Profiler proliferation. To be noted: for IC50: colorectal adenocarcinoma.
Text: as §1, §2

In the case of `CN1CCOc2ccc(cc2)C(=O)NCc2ccc(F)c(c2)C(=O)N[C@@H](CC(C)(C)C)C(=O)Nc2ccc(cc2)CCN(C)C(=O)CC(C)(C)CC1=O` [Compound 7A], the IC50 came to 2700 nM in test [1]; 880 nM in the test with RKO (Homo sapiens); 683 nM with RKO; 594 nM with MOLT-4 (Homo sapiens, MOLT-4, MOLT-4, acute lymphoblastic leukemia); 590 nM with MOLT-4 (MOLT-4, acute lymphoblastic leukemia); 3000 nM in the test with A549 (Homo sapiens, A549, lung). In addition, the IC50 was 1100 nM in the test with A-172 (A-172, glioblastoma); 1070 nM in the test on A-172 (Homo sapiens, A 172, A-172, glioblastoma); 635 nM with LoVo (Homo sapiens); 640 nM in the test with LoVo. Besides, the “IC50 Ratio WP1130/Compound 7A” value in the test on RKO came out at 4.9; in the test with MOLT-4 (MOLT-4), 6.8; in the test with A549 (A549), 4.7; in the test with A-172 (A-172), 5.1; with LoVo it was 8.6.
